Measurements: patent publication US12552772B2, “2-pyrazole anilines and related analogs for inhibiting YAP/TAZ-TEAD” (KATHOLIEKE UNIVERSITEIT LEUVEN, priority 2021, dated 2026)

System: YAP/TAZ-TEAD transcription
Test: Reporter gene assay for measuring the inhibition of YAP/TAZ-TEAD transcription (TEAD-responsive element luciferase reporter in Hek293T cells)
Assay type: cell-based
Conditions: Homo sapiens, HEK-293T, 24 hours incubation
Method in brief: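 Percent inhibition, scaled between vehicle (0%) and a positive control inhibitor (100%), came from SteadyLite luciferase signal after 24 h compound exposure at 37 °C/5% CO2. Cells: Hek293T transiently carrying a TEAD-responsive luciferase reporter; EC50 derived.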

Compound | EC50 [nM]
CNS(=O)(=O)CCNc1ccc(-c2cccc(OC(F)(F)F)c2)cc1-c1ccn(C)n1 [compound 129, N-methyl-2-((3-(1-methyl-1H-pyrazol-3-yl)-3′-(trifluoromethoxy)-[1,1′-biphenyl]-4-yl)amino)ethane-1-sulfonamide] | 1000 to 20000
CCC(=O)NCc1cc(-c2ccccc2)cc(-c2ccn(C)n2)c1 [compound 138, N-((5-(1-methyl-1H-pyrazol-3-yl)-[1,1′-biphenyl]-3-yl)methyl)propionamide] | 1000 to 20000
C=CC(=O)NCc1ccc(-c2ccc(F)cc2)cc1-c1ccn(CCOC(F)(F)F)n1 [compound 155, N-((4′-fluoro-3-(1-(2-(trifluoromethoxy)ethyl)-1H-pyrazol-3-yl)-[1,1′-biphenyl]-4-yl)methyl)acrylamide] | 1000 to 20000
C=CC(=O)NCc1ccc(-c2ccc(F)cc2)cc1-c1ccnn1C [compound 163, N-((4′-fluoro-3-(1-methyl-1H-pyrazol-5-yl)-[1,1′-biphenyl]-4-yl)methyl)acrylamide] | > 20000
C=CC(=O)NCc1ccc(-c2ccc(C(F)(F)F)cc2)cc1-c1cnn(C2CC2)c1 [compound 168, N-((3-(1-cyclopropyl-1H-pyrazol-4-yl)-4′-(trifluoromethyl)-[1,1′-biphenyl]-4-yl)methyl)acrylamide] | < 1000
C=CC(=O)NCc1ccc(-c2ccc(F)cc2)cc1-c1ccnn1C(F)F [compound 171, N-((3-(1-(difluoromethyl)-1H-pyrazol-5-yl)-4′-fluoro-[1,1′-biphenyl]-4-yl)methyl)acrylamide] | 1000 to 20000
C=CC(=O)NCc1ccc(-c2ccc(C(F)(F)F)cc2)cc1-c1cnn(C(F)F)c1 [compound 173, N-((3-(1-(difluoromethyl)-1H-pyrazol-4-yl)-4′-(trifluoromethyl)-[1,1′-biphenyl]-4-yl)methyl)acrylamide] | < 1000
C=CC(=O)NCc1ccc(-c2ccc(F)cc2)cc1-c1ccn(C2(C)CC2)n1 [compound 175, N-((4′-fluoro-3-(1-(1-methylcyclopropyl)-1H-pyrazol-3-yl)-[1,1′-biphenyl]-4-yl)methyl)acrylamide] | < 1000
C=CC(=O)NCc1ccc([C@H]2CC[C@H](C(F)(F)F)CC2)cc1-c1ccn(C)n1 [compound 178, trans-N-(2-(1-methyl-1H-pyrazol-3-yl)-4-(4-(trifluoromethyl)cyclohexyl)benzyl)acrylamide] | < 1000
C=CC(=O)NCc1ccc(N2CCC(C(F)(F)F)CC2)cc1-c1ccn(C)n1 [compound 181, N-(2-(1-methyl-1H-pyrazol-3-yl)-4-(4-(trifluoromethyl)piperidin-1-yl)benzyl)acrylamide] | < 1000
C=CC(=O)NCc1ccc(-c2ccc(F)cc2)cc1C1CCN(C)C1 (centres unmarked) [compound 183, N-((4′-fluoro-3-(1-methylpyrrolidin-3-yl)-[1,1′-biphenyl]-4-yl)methyl)acrylamide] | 1000 to 20000
C=CC(=O)NCc1ccc(-c2ccc(F)cc2)cc1-c1cnn(C(F)F)n1 [compound 186, N-((3-(2-(difluoromethyl)-2H-1,2,3-triazol-4-yl)-4′-fluoro-[1,1′-biphenyl]-4-yl)methyl)acrylamide] | < 1000
C=CC(=O)NCc1ccc(-c2ccc(F)cc2)cc1-c1nnnn1C [compound 189, N-((4′-fluoro-3-(1-methyl-1H-tetrazol-5-yl)-[1,1′-biphenyl]-4-yl)methyl)acrylamide] | 1000 to 20000
C=CC(=O)NCc1ccc(-c2ccc(F)cc2)cc1-n1ccnn1 [compound 191, N-((4′-fluoro-3-(1H-1,2,3-triazol-1-yl)-[1,1′-biphenyl]-4-yl)methyl)acrylamide] | < 1000
C=CC(=O)NCc1c(F)cc(-c2ccc(C(F)(F)F)cc2)cc1-c1ccn(C)n1 [compound 192, N-((3-fluoro-5-(1-methyl-1H-pyrazol-3-yl)-4′-(trifluoromethyl)-[1,1′-biphenyl]-4-yl)methyl)acrylamide] | < 1000
C=CC(=O)NCc1ccc(-c2ccc(F)cc2)nc1-c1ccn(CC2CC2)n1 [compound 195, N-((2-(1-(cyclopropylmethyl)-1H-pyrazol-3-yl)-6-(4-fluorophenyl)pyridin-3-yl)methyl)acrylamide] | < 1000
C=CC(=O)NCc1ccc(-c2ccc(F)cc2)nc1-c1ccn(C2CC2)n1 [compound 196, N-((2-(1-cyclopropyl-1H-pyrazol-3-yl)-6-(4-fluorophenyl)pyridin-3-yl)methyl)acrylamide] | < 1000

The remaining lines, values ahead:

EC50 [nM] | Compound
< 1000 | CNS(=O)(=O)CCNc1ccc(-c2cccc(F)c2F)cc1-c1ccn(C)n1 [compound 125, 2-((2′,3′-difluoro-3-(1-methyl-1H-pyrazol-3-yl)-[1,1′-biphenyl]-4-yl)amino)-N-methylethane-1-sulfonamide]
< 1000 | CNS(=O)(=O)CCNc1ccc(-c2cc(F)cc(F)c2)cc1-c1ccn(C)n1 [compound 126, 2-((3′,5′-difluoro-3-(1-methyl-1H-pyrazol-3-yl)-[1,1′-biphenyl]-4-yl)amino)-N-methylethane-1-sulfonamide]
< 1000 | CNS(=O)(=O)CCNc1ccc(-c2ccc(C(F)(F)F)c(F)c2)cc1-c1ccn(C)n1 [compound 127, 2-((3′-fluoro-3-(1-methyl-1H-pyrazol-3-yl)-4′-(trifluoromethyl)-[1,1′-biphenyl]-4-yl)amino)-N-methylethane-1-sulfonamide]
< 1000 | CNS(=O)(=O)CCNc1ccc(-c2cc(F)cc(C(F)(F)F)c2)cc1-c1ccn(C)n1 [compound 128, 2-((3′-fluoro-3-(1-methyl-1H-pyrazol-3-yl)-5′-(trifluoromethyl)-[1,1′-biphenyl]-4-yl)amino)-N-methylethane-1-sulfonamide]
< 1000 | CNS(=O)(=O)CCNc1cnc(-c2ccc(C(F)(F)F)cc2)cc1-c1ccn(C(F)F)n1 [compound 130, 2-((4-(1-(difluoromethyl)-1H-pyrazol-3-yl)-6-(4-(trifluoromethyl)phenyl)pyridin-3-yl)amino)-N-methylethane-1-sulfonamide]
< 1000 | CN(C)S(=O)(=O)CCNc1ccc(-c2ccc(F)cc2)nc1-c1ccn(C(F)F)n1 [compound 133, 2-((2-(1-(difluoromethyl)-1H-pyrazol-3-yl)-6-(4-fluorophenyl)pyridin-3-yl)amino)-N,N-dimethylethane-1-sulfonamide]
< 1000 | CNS(=O)(=O)CCNc1ccc(-c2ccc(C(F)(F)F)cc2)nc1-c1ccn(C(F)F)n1 [compound 134, 2-((2-(1-(difluoromethyl)-1H-pyrazol-3-yl)-6-(4-(trifluoromethyl)phenyl)pyridin-3-yl)amino)-N-methylethane-1-sulfonamide]
< 1000 | C=CC(=O)NCc1ccc(-c2ccccc2)cc1-c1ccn(Cc2cccnc2)n1 [compound 136, N-((3-(1-(pyridin-3-ylmethyl)-1H-pyrazol-3-yl)-[1,1′-biphenyl]-4-yl)methyl)acrylamide]
< 1000 | C=CC(=O)NCc1cc(-c2ccccc2)cc(-c2ccn(Cc3cccnc3)n2)c1 [compound 139, N-((5-(1-(pyridin-3-ylmethyl)-1H-pyrazol-3-yl)-[1,1′-biphenyl]-3-yl)methyl)acrylamide]
< 1000 | C=CC(=O)NCc1ccc(-c2ccc(C(F)(F)F)cc2F)cc1-c1ccn(C)n1 [compound 146, N-((2′-fluoro-3-(1-methyl-1H-pyrazol-3-yl)-4′-(trifluoromethyl)-[1,1′-biphenyl]-4-yl)methyl)acrylamide]
< 1000 | C=CC(=O)NCc1ccc(-c2ccc(C(F)(F)F)cn2)cc1-c1ccn(C)n1 [compound 147, N-(2-(1-methyl-1H-pyrazol-3-yl)-4-(5-(trifluoromethyl)pyridin-2-yl)benzyl)acrylamide]
< 1000 | C=CC(=O)NCc1ccc(-c2ccc(C(F)(F)F)nc2)cc1-c1ccn(C)n1 [compound 148, N-(2-(1-methyl-1H-pyrazol-3-yl)-4-(6-(trifluoromethyl)pyridin-3-yl)benzyl)acrylamide]
< 1000 | C=CC(=O)NCc1ccc(-c2ccc(F)cc2)cc1-c1ccn(C(C)C)n1 [compound 150, N-((4′-fluoro-3-(1-isopropyl-1H-pyrazol-3-yl)-[1,1′-biphenyl]-4-yl)methyl)acrylamide]
< 1000 | C=CC(=O)NCc1ccc(-c2ccc(F)cc2)cc1-c1ccn(CCO)n1 [compound 151, N-((4′-fluoro-3-(1-(2-hydroxyethyl)-1H-pyrazol-3-yl)-[1,1′-biphenyl]-4-yl)methyl)acrylamide]
< 1000 | C=CC(=O)NCc1ccc(-c2ccc(F)cc2)cc1-c1ccn(CC(C)C)n1 [compound 152, N-((4′-fluoro-3-(1-isobutyl-1H-pyrazol-3-yl)-[1,1′-biphenyl]-4-yl)methyl)acrylamide]
< 1000 | C=CC(=O)NCc1ccc(-c2ccc(F)cc2)cc1-c1ccn(C2COC2)n1 [compound 154, N-((4′-fluoro-3-(1-(oxetan-3-yl)-1H-pyrazol-3-yl)-[1,1′-biphenyl]-4-yl)methyl)acrylamide]
< 1000 | C=CC(=O)NCc1ccc(-c2ccc(C(F)(F)F)cc2)cc1-c1ccn(CCOC)n1 [compound 156, N-((3-(1-(2-methoxyethyl)-1H-pyrazol-3-yl)-4′-(trifluoromethyl)-[1,1′-biphenyl]-4-yl)methyl)acrylamide]
< 1000 | C=CC(=O)NCc1ccc(-c2ccc(Cl)cc2)cc1-c1ccn(C2CC2)n1 [compound 158, N-((4′-chloro-3-(1-cyclopropyl-1H-pyrazol-3-yl)-[1,1′-biphenyl]-4-yl)methyl)acrylamide]
< 1000 | C=CC(=O)NCc1ccc(-c2ccc(F)cc2)cc1-c1ccn(CC2COC2)n1 [compound 159, N-((4′-fluoro-3-(1-(oxetan-3-ylmethyl)-1H-pyrazol-3-yl)-[1,1′-biphenyl]-4-yl)methyl)acrylamide]
< 1000 | C=CC(=O)NCc1ccc(-c2ccc(F)cc2)cc1-c1ccn(CC(F)(F)F)n1 [compound 160, N-((4′-fluoro-3-(1-(2,2,2-trifluoroethyl)-1H-pyrazol-3-yl)-[1,1′-biphenyl]-4-yl)methyl)acrylamide]
< 1000 | C=CC(=O)NCc1ccc(-c2ccc(F)cc2)cc1-c1cccnc1 [compound 164, N-((4′-fluoro-3-(pyridin-3-yl)-[1,1′-biphenyl]-4-yl)methyl)acrylamide]
